pIC50: −log10 of the molar value.
These compounds were tested against T1, Ubiquitin carboxyl-terminal hydrolase 19 (Homo sapiens, UniProt O94966) (assay: Inhibition of C-terminal His6-tagged recombinant human USP19 using iso-peptide ubiquitin-Lys-TAMRA as substrate incubated for 30 mins and measured after 90 mins by fluorescent polarization assay).
T1 sequence (O94966 whole entry): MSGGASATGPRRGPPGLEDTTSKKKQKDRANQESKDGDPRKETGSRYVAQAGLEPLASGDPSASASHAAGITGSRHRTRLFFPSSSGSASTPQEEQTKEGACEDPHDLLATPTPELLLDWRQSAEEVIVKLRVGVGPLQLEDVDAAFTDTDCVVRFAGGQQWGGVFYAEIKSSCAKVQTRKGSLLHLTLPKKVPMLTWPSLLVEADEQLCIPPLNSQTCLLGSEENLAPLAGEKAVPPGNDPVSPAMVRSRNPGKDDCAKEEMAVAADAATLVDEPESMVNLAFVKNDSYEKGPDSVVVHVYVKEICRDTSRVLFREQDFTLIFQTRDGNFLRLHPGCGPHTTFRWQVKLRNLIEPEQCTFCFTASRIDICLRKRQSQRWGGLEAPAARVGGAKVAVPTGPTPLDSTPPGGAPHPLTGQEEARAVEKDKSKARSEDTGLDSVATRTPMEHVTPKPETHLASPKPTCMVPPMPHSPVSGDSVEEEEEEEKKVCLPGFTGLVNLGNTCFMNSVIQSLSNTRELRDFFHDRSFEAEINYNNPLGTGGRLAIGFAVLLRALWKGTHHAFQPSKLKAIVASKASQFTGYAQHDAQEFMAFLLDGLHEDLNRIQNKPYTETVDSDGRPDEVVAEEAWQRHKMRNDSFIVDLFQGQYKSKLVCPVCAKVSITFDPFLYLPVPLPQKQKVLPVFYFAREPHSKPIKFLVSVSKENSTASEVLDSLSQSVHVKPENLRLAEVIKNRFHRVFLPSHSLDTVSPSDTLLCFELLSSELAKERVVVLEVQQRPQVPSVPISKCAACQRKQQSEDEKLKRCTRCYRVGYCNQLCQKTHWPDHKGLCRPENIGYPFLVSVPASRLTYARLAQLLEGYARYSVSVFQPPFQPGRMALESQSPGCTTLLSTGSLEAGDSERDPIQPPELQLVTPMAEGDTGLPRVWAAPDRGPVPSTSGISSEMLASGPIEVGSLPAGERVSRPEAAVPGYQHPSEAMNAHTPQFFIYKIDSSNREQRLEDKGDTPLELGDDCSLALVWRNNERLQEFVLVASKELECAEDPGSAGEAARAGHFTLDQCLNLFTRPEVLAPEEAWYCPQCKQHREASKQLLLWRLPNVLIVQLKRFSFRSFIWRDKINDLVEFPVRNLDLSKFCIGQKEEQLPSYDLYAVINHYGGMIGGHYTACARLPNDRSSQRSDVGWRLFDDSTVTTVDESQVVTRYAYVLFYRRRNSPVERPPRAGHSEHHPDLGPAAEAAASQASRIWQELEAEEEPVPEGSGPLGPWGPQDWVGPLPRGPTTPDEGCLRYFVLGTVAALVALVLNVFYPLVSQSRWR

`Cn1ccc(-c2cc(=O)n(C[C@]3(O)CCN(C(=O)N4CCNC[C@H]4c4ccccc4)CC34CCCC4)cn2)n1` was tested. Which pIC50 did it give?
Its pIC50 is greater than 6.30.

How did the pIC50 turn out when `O=C(N1CC[C@@](O)(Cn2cnc(-c3ccccc3F)cc2=O)C2(CCCC2)C1)N1CCNC[C@H]1c1cc(F)cc(F)c1` was run?
Its pIC50 is greater than 6.30.

`O=C(N1CC[C@@](O)(Cn2cnc(-c3ccccc3)cc2=O)C2(CCCC2)C1)N1CCNC[C@H]1c1cc(F)ccc1F` was tested. Which pIC50 did it give?
The pIC50 was greater than 6.30.

With `C[C@@]1(c2ccccc2)CNCCN1C(=O)N1CC[C@@](O)(Cn2cnc(-c3ccccc3)cc2=O)C2(CCCC2)C1` as the compound, how does the pIC50 read?
The pIC50 was greater than 6.30.

`O=C(N1CC[C@@](O)(Cn2cnc(-c3cccc(F)c3)cc2=O)C2(CCCC2)C1)N1CCNC[C@H]1c1cc(F)ccc1F` was tested. Which pIC50 did it give?
The pIC50 was greater than 6.30.

`Cc1cccc(-c2cc(=O)n(C[C@]3(O)CCN(C(=O)N4CCNC[C@H]4c4cc(F)ccc4F)CC34CCCC4)cn2)c1` was tested. Which pIC50 did it give?
The pIC50 was greater than 6.30.

`O=C(N1CC[C@@](O)(Cn2cnc(-c3ccccc3F)cc2=O)C2(CCCC2)C1)N1CCNC[C@H]1c1cc(F)ccc1F` was tested. Which pIC50 did it give?
The pIC50 was greater than 6.30.

With `COc1ccccc1-c1cc(=O)n(C[C@]2(O)CCN(C(=O)N3CCNC[C@H]3c3cc(F)ccc3F)CC23CCCC3)cn1` as the compound, how does the pIC50 read?
The pIC50 was greater than 6.30.

How did the pIC50 turn out when `N[C@H]1CCN(C(=O)N2CC[C@@](O)(Cn3cnc(-c4ccccc4)cc3=O)C3(CCCC3)C2)[C@H](c2ccccc2)C1` was run?
Its pIC50 is greater than 6.30.

With `O=C(N1CC[C@@](O)(Cn2ccc(-c3ccccc3F)cc2=O)C2(CCCC2)C1)N1CCNC[C@H]1c1cccc(F)c1` as the compound, how does the pIC50 read?
Its pIC50 is greater than 6.30.

With `O=C(N1CC[C@@](O)(Cn2ccc(-c3ccccc3)cc2=O)C2(CCCC2)C1)N1CCNC[C@H]1c1cc(F)ccc1F` as the compound, how does the pIC50 read?
Its pIC50 is greater than 6.30.

`O=C(N1CC[C@@](O)(Cn2cnc(-c3ccccc3)cc2=O)C2(CCCC2)C1)N1CCSC[C@H]1c1cc(F)ccc1F` was tested. Which pIC50 did it give?
Its pIC50 is greater than 6.30.

With `O=C(N1CC[C@@](O)(Cn2cnc(C3CC3)cc2=O)C2(CCCC2)C1)N1CCNC[C@H]1c1cc(F)ccc1F` as the compound, how does the pIC50 read?
The pIC50 was greater than 6.30.

`O=C(N1CC[C@@](O)(Cn2cnc(N3CC4CC4C3)cc2=O)C2(CCCC2)C1)N1CCNC[C@H]1c1cc(F)ccc1F` (some centres not stated) was tested. Which pIC50 did it give?
The pIC50 was greater than 6.30.

`COc1ccc(F)cc1-c1cc(=O)n(C[C@]2(O)CCN(C(=O)N3CCNC[C@H]3c3ccccc3)CC23CCCC3)cn1` was tested. Which pIC50 did it give?
The pIC50 was greater than 6.30.

`O=C(N1CC[C@@](O)(Cn2cnc(-c3ccccc3)cc2=O)C2(CCCC2)C1)N1CCS(=O)(=O)C[C@H]1c1cc(F)ccc1F` was tested. Which pIC50 did it give?
The pIC50 was greater than 6.30.

With `O=C(N1CC[C@@](O)(Cn2cnc(-c3cccc(F)c3F)cc2=O)C2(CCCC2)C1)N1CCNC[C@H]1c1ccccc1` as the compound, how does the pIC50 read?
The pIC50 was greater than 6.30.

With `N[C@@H]1CCN(C(=O)N2CC[C@@](O)(Cn3cnc(-c4ccccc4)cc3=O)C3(CCCC3)C2)[C@H](c2ccccc2)C1` as the compound, how does the pIC50 read?
The pIC50 was greater than 6.30.

With `O=C(N1CC[C@@](O)(Cn2cnc(C3CC3)cc2=O)C2(CCCC2)C1)N1CCNC[C@H]1c1cccc(F)c1` as the compound, how does the pIC50 read?
The pIC50 was greater than 6.30.

`O=C(N1CC[C@@](O)(Cn2cnc(-c3ccccc3)cc2=O)C2(CCCC2)C1)N1CCNCC1c1ccc(F)c(F)c1` (some centres not stated) was tested. Which pIC50 did it give?
Its pIC50 is greater than 6.30.

With `O=C1CN(C(=O)N2CC[C@@](O)(Cn3cnc(-c4ccccc4)cc3=O)C3(CCCC3)C2)[C@H](c2ccccc2)CN1` as the compound, how does the pIC50 read?
Its pIC50 is greater than 6.30.

With `Cc1cccc(F)c1-c1cc(=O)n(C[C@]2(O)CCN(C(=O)N3CCNC[C@H]3c3ccccc3)CC23CCCC3)cn1` as the compound, how does the pIC50 read?
The pIC50 was greater than 6.30.

How did the pIC50 turn out when `O=C(N1CC[C@@](O)(Cn2cnc(-c3cccc(F)c3)cc2=O)C2(CCCC2)C1)N1CCNC[C@H]1c1cccc(F)c1` was run?
The pIC50 was greater than 6.30.

With `COc1c(F)cccc1-c1cc(=O)n(C[C@]2(O)CCN(C(=O)N3CCNC[C@H]3c3ccccc3)CC23CCCC3)cn1` as the compound, how does the pIC50 read?
Its pIC50 is greater than 6.30.

`O=C(N1CC[C@@](O)(Cn2cnc(-c3ccccc3)cc2=O)C2(CCCC2)C1)N1CCNCC1c1cc(F)cc(F)c1` (some centres not stated) was tested. Which pIC50 did it give?
Its pIC50 is greater than 6.30.

`N=S1(=O)CCN(C(=O)N2CC[C@@](O)(Cn3cnc(-c4ccccc4)cc3=O)C3(CCCC3)C2)[C@H](c2cc(F)ccc2F)C1` (some centres not stated) was tested. Which pIC50 did it give?
Its pIC50 is greater than 6.30.

How did the pIC50 turn out when `COc1cccc(F)c1-c1cc(=O)n(C[C@]2(O)CCN(C(=O)N3CCNC[C@H]3c3ccccc3)CC23CCCC3)cn1` was run?
Its pIC50 is greater than 6.30.

— ChEMBL document CHEMBL5052842, “Pharmaceutical compounds and their use as inhibitors of ubiquitin specific protease 19 (usp19)” (2020)
